Assay results: patent publication US20090233973A1, “EPOTHILONE DERIVATIVES FOR THE TREATMENT OF MULTIPLE MYELOMA” (priority 2002, published 2009)

Tests used:
Assay type in all cases: cell-based, human
[1] = tested on: MM cells; experiment: Cell cycle analysis (propidium iodide, flow cytometry)
Method: MM cells (1×10^6 cells) are cultured in the presence of Epothilone B or DMSO control for 24, 48 and 72 h. Cells are then washed with phosphate buffered saline (PBS), fixed with 70% ethanol, and treated with RNAse (Sigma). Cells are next stained with propidium iodide (PI, 5 μg/mL), and the cell cycle profile is determined using the M software on an Epics flow cytometer (Coulter Immunology, Hialeah, Fla.).

[2] = tested on: MM cells; experiment: Proliferation ([3H]-thymidine) and cell viability (MTS) assays
Method: RPMI 8226 and U266 human MM cell lines can be obtained from the American Type Culture Collection (ATCC) of Rockville, Md. Patient derived MM cells are purified from patient BM samples, as described by Y. T. Tai, G. Teoh, Y. Shima, et al in J. Immunol. Methods 235:11, 2000. All human MM cell lines are cultured in RPMI-1640 media (Sigma Chemical, St. Louis, Mo.), containing 10% fetal bovine serum (FBS), 2 mmol/L L-glutamine (L-glut, GIBCO, Grand Island, N.Y.), 100 U/mL penicillin and […] streptomycin (P/S, GIBCO). MM patient cells are >95% CD38+, CD45RA−. […]
MM cells are first starved for 12 h in RPMI-1640 media containing […], and then plated into 96-well microtiter plates (Costar, Cambridge, Mass.), in the presence of drug or DMSO control. […] Proliferation is measured by the incorporation of [^3H]-thymidine (NEN Products, Boston, Mass.). Specifically, cells are pulsed with [^3H]-thymidine (0.5 μCi/well) for the last 6 h of 48 h cultures, harvested onto glass filters with an automatic cell harvester (Cambridge Technology, Cambridge, Mass.), and counted using a LKB Betaplate scintillation counter (Wallac, Gaithersburg, Md.). […] Cells are exposed to the MTS for the last 2 h of 48 h cultures, and absorbance is measured using an ELISA plate reader (Molecular Devices Corp., Sunnyvale, Calif.) at OD of 570 nm.

[3] = tested on: MM.1S cells; experiment: Proliferation of MM cells in a modified Boyden chamber transwell co-culture system with BMSCs; conditions: 48 h
Method: Proliferation is measured in a modified Boyden chamber transwell system, using 24-well plates with a […] pore size inserts (Costar). BMSCs (4×10^4 cells/well) are plated in the lower chamber, starved, and incubated in an epothilone as described above. MM cells (20×10^4 cells/ml) are then placed in the upper chamber (insert), and [^3H]-thymidine uptake in the individual chambers is measured at 48 h as described above.
MM.1S cells are placed in the upper chamber of a transwell co-culture system in order to preclude direct contact between MM cells and BMSCs, but nonetheless allow for diffusion of humoral factors. Despite the lack of contact between the two cell types, uptake of [^3H]-dT by MM.1S cells incubated with BMSCs is increased by 2.2-fold (p<0.0001) at 48 h.

C/C(=C\c1csc(C)n1)[C@@H]1C[C@@H]2O[C@]2(C)CCC[C@H](C)[C@H](O)[C@@H](C)C(=O)C(C)(C)[C@@H](O)CC(=O)O1 [epothilone B]
cell cycle effect / apoptosis [1]: induces G2M arrest in MM cells with subsequent apoptosis | growth and survival of myeloma cells [2]: directly inhibit the growth and survival of myeloma cells | proliferation of MM.1S cells ([3H]-dT uptake) [3]: reduces proliferation of MM.1S cells
